Experimental data published in ChEMBL document CHEMBL3612022, “Regioselectively controlled synthesis of 3(5)-(trifluoromethyl)pyrazolylbenzenesulfonamides and their effects on a pathological pain model in mice” (Eur J Med Chem, 2015).
Active and inactive are the calls of the source.

Experiments:
[1] = system: Mus musculus; assay: Antihyperalgesic effect in Swiss mouse assessed as inhibition of CFA-induced paw withdrawal threshold at 300 mg/kg, po after 2 hrs; assay type: functional
[2] = system: Mus musculus; assay: Antiedematogenic effect in Swiss mouse assessed as inhibition of CFA-induced paw edema at 300 mg/kg, po after 2 hrs; assay type: functional
[3] = system: Mus musculus; assay: Locomotor activity in Swiss mouse assessed as motor impairment at 300 mg/kg, po by open-field test; assay type: toxicity, organism-based; details: in vivo
[4] = system: Mus musculus; assay: Locomotor activity in Swiss mouse assessed as motor impairment at 300 mg/kg, po by rotarod test; assay type: toxicity, organism-based; details: in vivo
[5] = system: Mus musculus; assay: Antihyperalgesic effect in po dosed Swiss mouse assessed as inhibition of CFA-induced paw withdrawal threshold after 2 hrs; assay type: functional
[6] = system: Mus musculus; assay: Antiedematogenic effect in Swiss mouse assessed as inhibition of CFA-induced paw edema at 300 mg/kg, po after 1 to 6 hrs; assay type: functional, organism-based
[7] = system: Mus musculus; assay: Antihyperalgesic effect in Swiss mouse assessed as inhibition of CFA-induced paw withdrawal threshold at 300 mg/kg, po after 0.5 to 6 hrs; assay type: functional, organism-based

SMILES	inhibition in vivo at 300 mg/kg [1] [%]	inhibition in vivo at 300 mg/kg [2] [%]	Activity [3]	Activity [4]	inhibition [1]	IC [5] [mg/kg]	inhibition [6]	inhibition [7]
NS(=O)(=O)c1ccc(N2N=C(c3ccc(Br)cc3)CC2(O)C(F)(F)F)cc1 (stereo not drawn)	57	46	Non-toxic	Non-toxic	–	–	–	–
NS(=O)(=O)c1ccc(N2N=C(c3ccc(Cl)cc3)CC2(O)C(F)(F)F)cc1 (stereo not drawn)	57	–	Non-toxic	Non-toxic	–	–	–	–
NS(=O)(=O)c1ccc(N2N=C(c3ccco3)CC2(O)C(F)(F)F)cc1 (stereo not drawn)	–	48	Non-toxic	Non-toxic	inactive	–	–	–
NS(=O)(=O)c1ccc(N2N=C(c3ccccc3)CC2(O)C(F)(F)F)cc1 (stereo not drawn)	52	44	Non-toxic	Non-toxic	–	–	–	–
Cc1ccc(C2=NN(c3ccc(S(N)(=O)=O)cc3)C(O)(C(F)(F)F)C2)cc1 (stereo not drawn)	64	45	Non-toxic	Non-toxic	–	539.3	Active	Active
NS(=O)(=O)c1ccc(N2N=C(c3ccc(F)cc3)CC2(O)C(F)(F)F)cc1 (stereo not drawn)	62	–	Non-toxic	Non-toxic	–	–	–	–
COc1ccc(C2=NN(c3ccc(S(N)(=O)=O)cc3)C(O)(C(F)(F)F)C2)cc1 (stereo not drawn)	–	46	Non-toxic	Non-toxic	inactive	–	–	–
Cc1ccc(-c2cc(C(F)(F)F)nn2-c2ccc(S(N)(=O)=O)cc2)cc1 [CELECOXIB]	77	53	–	–	–	652.1	–	Active
